Laboratory results published in ChEMBL document CHEMBL2417359, “Discovery of N-(2,3,5-triazoyl)mycophenolic amide and mycophenolic epoxyketone as novel inhibitors of human IMPDH” (Bioorg Med Chem Lett, 2013).
“And” between values parts separate entries of the source, which are not always exact repeats. Identical values can stand only once. One block for each compound: values may come before it. The source made the active and inactive calls. The rule behind the calls is not given here.

How the values were obtained:
[1] = target: Inosine-5'-monophosphate dehydrogenase 1 (Homo sapiens, UniProt P20839); experiment: Inhibition of human IMPDH1
[2] = target: Inosine-5'-monophosphate dehydrogenase 2 (Homo sapiens, UniProt P12268); experiment: Inhibition of human IMPDH2
K562 [3] = experiment: Cytotoxicity against human K562 cells; assay type: functional, cell-based
K562 [4] = experiment: Induction of human K562 cell differentiation at 5 uM after 72 hrs by trypan blue exclusion assay in presence of guanosine; assay type: functional, cell-based
K562 [5] = experiment: Antiproliferative activity against human K562 cells at 5 uM in presence of guanosine; assay type: functional, cell-based
[6] = target: Histone deacetylase (Homo sapiens) (UniProt Q13547+O15379+Q9UBN7+Q92769+Q9UQL6+Q8WUI4+Q9BY41+Q96DB2+P56524+Q9UKV0+Q969S8); experiment: Inhibition of HDAC in human K562 cells using Boc-Lys[Ac]-AMC as substrate at 10 uM incubated for 10 mins prior to substrate addition measured after 80 mins by fluorescence assay; assay type: cell-based
Homo sapiens = species on record: Homo sapiens; experiment: Selectivity index, ratio of IC50 for human IMPDH1 to IC50 for human IMPDH2
K562 [7] = experiment: Antiproliferative activity against human K562 cells at 5 uM; assay type: functional, cell-based
K562 [8] = experiment: Induction of human K562 cell differentiation at 2.5 uM after 72 hrs by trypan blue exclusion assay in presence of guanosine; assay type: functional, cell-based
K562 [9] = experiment: Antiproliferative activity against human K562 cells at 2.5 uM in presence of guanosine; assay type: functional, cell-based
K562 [10] = experiment: Antiproliferative activity against human K562 cells at 2.5 uM; assay type: functional, cell-based
K562 [11] = experiment: Induction of human K562 cell differentiation at 1 uM after 72 hrs by trypan blue exclusion assay in presence of guanosine; assay type: functional, cell-based
K562 [12] = experiment: Antiproliferative activity against human K562 cells at 1 uM in presence of guanosine; assay type: functional, cell-based
K562 [13] = experiment: Antiproliferative activity against human K562 cells at 1 uM; assay type: functional, cell-based
K562 [14] = experiment: Antiproliferative activity against human K562 cells at 1 mM in presence of guanosine; assay type: functional, cell-based
K562 [15] = experiment: Induction of human K562 cell differentiation at 1 to 30 uM after 72 hrs by trypan blue exclusion assay in presence of guanosine; assay type: functional, cell-based
K562 [16] = experiment: Induction of human K562 cell differentiation at 30 uM after 72 hrs by trypan blue exclusion assay; assay type: functional, cell-based

Chain of Inosine-5'-monophosphate dehydrogenase 1 (P20839 whole entry): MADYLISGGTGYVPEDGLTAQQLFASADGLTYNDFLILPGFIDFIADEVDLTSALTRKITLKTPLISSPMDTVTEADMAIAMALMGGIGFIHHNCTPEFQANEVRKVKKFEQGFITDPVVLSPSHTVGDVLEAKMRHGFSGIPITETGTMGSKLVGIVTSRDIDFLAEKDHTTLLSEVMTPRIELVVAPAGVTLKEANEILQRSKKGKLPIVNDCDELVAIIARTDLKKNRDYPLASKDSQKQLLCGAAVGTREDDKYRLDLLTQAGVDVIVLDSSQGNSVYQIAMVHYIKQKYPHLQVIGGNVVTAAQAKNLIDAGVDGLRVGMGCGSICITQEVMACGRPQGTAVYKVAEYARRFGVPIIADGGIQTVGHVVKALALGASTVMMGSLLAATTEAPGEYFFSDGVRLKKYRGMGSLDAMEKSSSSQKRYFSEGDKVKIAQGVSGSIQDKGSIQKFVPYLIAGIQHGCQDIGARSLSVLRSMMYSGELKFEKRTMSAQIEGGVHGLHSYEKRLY

IC50 [1]: 0.68 µM
IC50 [2]: 0.387 µM
SMILES: COc1c(C)c2c(c(O)c1C/C=C(\C)CCC(=O)[C@@H]1CO1)C(=O)OC2 [listing 1 of 3 here]
IC50 (K562 [3]): 2.3 µM

inhibition [6]: 15% and 19%
Ratio IC50 (Homo sapiens): 1.8 and 1.7
SMILES: COc1c(C)c2c(c(O)c1C/C=C(\C)CCC(=O)[C@@H]1CO1)C(=O)OC2 [listing 2 of 3 here]
Activity (K562 [4]): inactive
Activity (K562 [5]): inactive
Activity (K562 [7]): Active

SMILES: COc1c(C)c2c(c(O)c1C/C=C(\C)CCC(=O)Nc1nnn[nH]1)C(=O)OC2
IC50 (K562 [3]): 34 µM

SMILES: COc1c(C)c2c(c(O)c1C/C=C(\C)CCC(=O)Nc1ccccn1)C(=O)OC2
IC50 (K562 [3]): 26 µM

SMILES: COc1c(C)c2c(c(O)c1C/C=C(\C)CCCS)C(=O)OC2
IC50 (K562 [3]): 74 µM

SMILES: COc1c(C)c2c(c(O)c1C/C=C(\C)CCC(=O)Nn1cnnc1)C(=O)OC2
IC50 (K562 [3]): 31 µM

SMILES: COc1c(C)c2c(c(O)c1C/C=C(\C)CCC(=O)Nc1nccs1)C(=O)OC2
IC50 (K562 [3]): 22 µM

inhibition [6]: 76%
SMILES: COc1c(C)c2c(c(O)c1C/C=C(\C)CCC(=O)NO)C(=O)OC2
Activity (K562 [8]): inactive
Activity (K562 [9]): inactive
Activity (K562 [10]): Active

SMILES: COc1c(C)c2c(c(O)c1C/C=C(\C)CCCSC(C)=O)C(=O)OC2
IC50 (K562 [3]): 26 µM

inhibition [6]: 3%
SMILES: COc1c(C)c2c(c(O)c1C/C=C(\C)CCC(=O)O)C(=O)OC2
Activity (K562 [11]): inactive
Activity (K562 [12]): inactive
Activity (K562 [13]): Active

SMILES: CCCC(=O)[O-].[Na+]
Activity (K562 [14]): Active

SMILES: COc1c(C)c2c(c(O)c1C/C=C(\C)CCC(=O)Nc1nncs1)C(=O)OC2
IC50 (K562 [3]): 27 µM

Ratio IC50 (Homo sapiens): 1.1
IC50 [1]: 0.105 µM
IC50 [2]: 0.098 µM
SMILES: COc1c(C)c2c(c(O)c1C/C=C(\C)CCC(=O)Nc1ncn[nH]1)C(=O)OC2
Activity (K562 [15]): inactive
Activity (K562 [12]): inactive
Activity (K562 [13]): Active
Activity (K562 [16]): Active
IC50 (K562 [3]): 0.48 µM

IC50 [1]: 0.558 µM
IC50 [2]: 0.33 µM
SMILES: COc1c(C)c2c(c(O)c1C/C=C(\C)CCC(=O)[C@@H]1CO1)C(=O)OC2 [listing 3 of 3 here]
IC50 (K562 [3]): 2.9 µM
